Assay [1] deals with IDH1 wt/IDH1 R132C heterodimer (Homo sapiens (Human), UniProt O75874, R132C). Put plainly: In vitro assay for IDH1m R132C inhibitors, IDH1 wt/IDH1 R132C heterodimer, NADPH depletion (diaphorase/resazurin). The assay is classed as biochemical. As to conditions: NADPH/NADP. The protocol: The following describes the experimental procedures that can be used to obtain data on columns 2 and 4 of Table 4 and column 2 of Table 5.
In the primary reaction, the reduction of α-KG acid to 2-HG is accompanied by a concomitant oxidation of NADPH to NADP. The amount of NADPH remaining at the end of the reaction time is measured in a secondary diaphorase/resazurin reaction in which the NADPH is consumed in a 1:1 molar ratio with the conversion of resazurin to the highly fluorescent resorufin.
The mixture of compound, enzyme, and cofactor is pre-incubated at room temperature for 1 hr prior to the addition of alpha-ketoglutarate. To perform the secondary reaction, 10 uL of 1× buffer containing 36 μg/ml diaphorase and […] resazurin is added to the primary reaction and incubated for a further 5 minutes at 25° C. Florescence is read on a Spectramax platereader at Ex 544 Em 590. Compounds or compound dilutions are prepared in 100% DMSO concentration and diluted 1:50 into the final reaction. […] IC50s are determined.
IDH1 or IDH2 wildtype (wt) and mutant heterodimers are expressed and purified by methods known in the art. For example, IDH1wt/R132m heterodimer is expressed and purified as follows. Co-expression of IDH1wt-his and IDH1R132C-flag is carried out in sf9 insect cells. Cells (25 g) are resuspended in 250 ml of 50 mM Tirs, 500 mM NaCl, pH7.4, at 4° C. with stirring. Cells are disrupted with 4 passes through an M-Y110 Micro fluidizer (Microfluidics) set to 500 psi, and then centrifuged at 22,000 rcf for 20 min at 4° C. The supernatant is harvested and loaded at 15 cm/h on a Histrap FF 5*1 ml column (GE) which is equilibrated with 50 mM Tirs, 500 mM NaCl, pH7.4. Host cell contaminants are removed by washing the column with equilibration buffer followed by equilibration buffer containing 20 mM imidazole and 60 mM imidazole to baseline. IDH1wt-his homodimer and IDH1wt-his/IDH1R132C-flag are eluted by equilibration buffer containing 250 mM imidazole. Fractions eluted by 250 mM imidazole are pooled together and loaded at 15 cm/h onto a column pre-packed with 10 ml ANTI-FLAG® M2 Affinity Gel (Sigma), the column is equilibrated with 50 mM Tris, 500 mM NaCl, pH7.4. After washing with equilibration buffer, IDH1wt-his/IDH1R132C-flag heterodimer is eluted by equilibration buffer containing flag peptide (0.2 mg/ml). Aliquots of IDH1wt-his/IDH1R132C-flag are flash frozen in liquid N2 and stored at −80° C. Same conditions are used for the purification of IDH1wt-his/IDH1R132H-flag.

In assay [2] the target is IDH1-R132H homodimer enzyme (Homo sapiens (Human), UniProt O75874, R132H). Put plainly: In vitro assay IDH1-R132H homodimer, NADPH depletion assay with NADPH/NADP preincubation. It is filed as biochemical. As to conditions: 5 μM NADPH and 37.5 μM NADP. The method, boiled down: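 Compounds were added from DMSO at 50× final concentration, and the mutant enzyme was incubated 60 min at room temperature after starting with a substrate mix holding NADPH and 5 mM alpha-ketoglutarate. Residual cofactor, read by fluorescence after excess diaphorase and resazurin, reflects enzyme turnover.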
Sequence of IDH1-R132H homodimer enzyme (O75874 whole entry R132H): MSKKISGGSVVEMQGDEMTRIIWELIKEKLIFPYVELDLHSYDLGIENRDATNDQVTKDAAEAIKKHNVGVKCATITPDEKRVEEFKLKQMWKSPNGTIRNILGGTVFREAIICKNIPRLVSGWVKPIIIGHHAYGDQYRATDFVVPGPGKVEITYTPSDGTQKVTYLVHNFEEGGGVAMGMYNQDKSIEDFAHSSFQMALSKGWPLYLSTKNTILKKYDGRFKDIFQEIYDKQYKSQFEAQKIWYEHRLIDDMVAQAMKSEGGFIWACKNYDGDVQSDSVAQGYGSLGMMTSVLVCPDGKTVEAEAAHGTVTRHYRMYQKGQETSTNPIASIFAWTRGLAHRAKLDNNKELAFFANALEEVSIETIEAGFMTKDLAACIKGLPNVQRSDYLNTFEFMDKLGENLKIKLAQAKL

In the next assay the target is IDH2 R140Q (Homo sapiens (Human), UniProt P48735, R140Q). Briefly: In vitro assay for IDH2m R140Q inhibitors, cofactor depletion assay. The conditions noted are these: IDH2 R140Q enzyme. It is filed as biochemical. The method, boiled down: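 Remaining cofactor measured fluorimetrically: diaphorase/resazurin Stop Mix […], halting the reaction. Before that, mutant enzyme and compound sat 1 h at RT, then substrate mix (4 μM NADPH, 1.6 mM α-KG) was added for 16 h at RT.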
Sequence of IDH2 R140Q (P48735 40-452 R140Q): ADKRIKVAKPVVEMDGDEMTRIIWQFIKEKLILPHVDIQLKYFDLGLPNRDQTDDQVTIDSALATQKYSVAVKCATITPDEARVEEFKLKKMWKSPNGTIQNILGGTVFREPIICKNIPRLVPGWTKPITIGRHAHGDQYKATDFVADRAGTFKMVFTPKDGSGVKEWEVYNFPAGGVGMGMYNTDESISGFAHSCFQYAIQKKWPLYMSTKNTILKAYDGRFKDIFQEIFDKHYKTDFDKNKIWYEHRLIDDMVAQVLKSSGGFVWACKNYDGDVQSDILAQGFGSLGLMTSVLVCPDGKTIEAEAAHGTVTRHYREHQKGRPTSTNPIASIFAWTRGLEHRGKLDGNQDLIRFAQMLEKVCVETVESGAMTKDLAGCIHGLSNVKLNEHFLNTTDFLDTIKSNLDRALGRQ

The subject of assay [3] is U87MG pLVX-IDH2 R140Q-neo cells. Put plainly: U87MG pLVX-IDH2 R140Q-neo cell based assay, 2-HG by LC-MS. As to conditions: Homo sapiens, U-87 MG.
Assay [4] concerns Neurosphere cells (TS603). Briefly: Cellular assay for IDH1m R132H inhibitors, 2-HG by LC-MS in neurosphere cells (TS603). It is filed as cell-based. The conditions noted are these: 2-HG in media at 48 hours. The method, boiled down: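 TS603 neurosphere cells in NeuroCult medium were dosed with compound (0.25% DMSO final) at 37 C, 5% CO2. After 48 hours, medium 2-HG was measured by LC-MS. At 72 hours, viability was read by CellTiter-Glo luminescence.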

Among the data in patent US10028961B2, “Therapeutically active compounds and their methods of use” (AGIOS PHARMACEUTICALS, INC., priority 2013, dated 2018) are IC50 values, retold here.

Where only a bound is given, the exact number is not on record here.

Sequence of IDH1 wt/IDH1 R132C heterodimer (O75874 whole entry R132C): as the sequence (O75874 whole entry R132H) above, with H132C counted along it
Sequence of IDH1 wt/IDH1 R132C heterodimer (O75874 whole entry, stated change not applied): as the sequence (O75874 whole entry R132H) above, with H132R counted along it

For `CCC(Nc1nc(NC(CC)C2CC2)nc(-c2cccc(Cl)n2)n1)C1CC1` (stereo not shown) [Compound 110], the IC50 (as a rule, the concentration needed to halve the response being measured) in assay [1] is less than 50 nM; in assay [2], 50 to 100 nM; against IDH2 R140Q it was less than 50 nM; in assay [3], less than 50 nM; in assay [4], less than 50 nM.
Regarding `C[C@@H](Nc1nc(N[C@H](C)C2CC2)nc(-n2ccc(C(F)(F)F)n2)n1)C1CC1` [Compound 121], the IC50 in assay [1] was less than 50 nM; in assay [2], 50 to 100 nM; at IDH2 R140Q, less than 50 nM; in assay [3] it was less than 50 nM; in assay [4], less than 50 nM.
Consider `FC1(F)CCC(Nc2nc(NC3CCC(F)(F)CC3)nc(-c3cncc(Cl)n3)n2)CC1` [Compound 147], for which the IC50 was less than 50 nM in assay [1]; 50 to 100 nM in assay [2]; less than 50 nM against IDH2 R140Q; less than 50 nM in assay [3]; less than 50 nM in assay [4].
With `FC1(F)CC(Nc2nc(NC3CC(F)(F)C3)nc(-n3ccc(C(F)(F)F)n3)n2)C1` [Compound 126], the IC50 in assay [1] was less than 50 nM; in assay [2], 50 to 100 nM; at IDH2 R140Q, less than 50 nM; in assay [3], less than 50 nM; in assay [4], less than 50 nM.
`FC1(F)CCC(Nc2nc(NC3CCN(c4ccccn4)C3)nc(-c3cccc(C(F)(F)F)n3)n2)C1` (stereo not shown) [Compound 222]: the IC50 in assay [1] was 50 to 100 nM; in assay [2] it was 100 to 1000 nM; against IDH2 R140Q, 100 to 1000 nM; in assay [3], 100 to 1000 nM; in assay [4] it was less than 50 nM.
As for `Fc1cc(F)cc(Nc2nc(NC3CCC(F)(F)C3)nc(-c3cccc(C(F)(F)F)n3)n2)c1` (stereo not shown) [Compound 123], the IC50 (in assay [1]; in assay [2]; on IDH2 R140Q; in assay [3]; in assay [4]) was less than 50 nM in each case.
With `CC(C)(CC#N)Nc1nc(Nc2ccnc(C(C)(F)F)c2)nc(-c2cccc(C(F)(F)F)n2)n1` [Compound 231], the IC50 in assay [1] was 50 to 100 nM; in assay [2], 100 to 1000 nM; against IDH2 R140Q, less than 50 nM; in assay [3] it was less than 50 nM; in assay [4] it was less than 50 nM.
Consider `N#Cc1cc(F)cc(Nc2nc(NC3CCC(F)(F)C3)nc(-c3cccc(C(F)(F)F)n3)n2)c1` (stereo not shown) [Compound 124], for which the IC50 (in assay [1]; in assay [2]; at IDH2 R140Q; in assay [3]; in assay [4]) was less than 50 nM in each case.
In the case of `C[C@@H](Nc1nc(Nc2ccnc(C3(C#N)CC3)c2)nc(-c2cccc(Cl)n2)n1)C1CC1` [Compound 167], the IC50 (in assay [1]; in assay [2]; against IDH2 R140Q; in assay [3]; in assay [4]) was less than 50 nM in each case.
In the case of `C[C@@H](Nc1nc(N[C@H](C)C2CC2)nc(-c2nccc(C(F)(F)F)n2)n1)C1CC1` [Compound 268], the IC50 in assay [1] was less than 50 nM; in assay [2] it was greater than 1000 nM; against IDH2 R140Q, 50 to 100 nM; in assay [3], 50 to 100 nM; in assay [4] it was less than 50 nM.
For `CC(Nc1nc(Nc2ccnc(C3(C#N)CC3)c2)nc(-c2cccc(Cl)n2)n1)C(F)(F)F` (stereo not shown) [Compound 134], the IC50 (in assay [1]; in assay [2]; on IDH2 R140Q; in assay [3]; in assay [4]) was less than 50 nM throughout.
Consider `CC(C)(C)Nc1nc(Nc2cccc(C#N)c2)nc(-c2cccc(C(F)(F)F)n2)n1` [Compound 117], for which the IC50 (in assay [1]; at IDH2 R140Q; in assay [3]) was less than 50 nM each time.
Turning to `FC1(F)CC(Nc2nc(NC3CC(F)(F)C3)nc(-c3cncc(C(F)(F)F)n3)n2)C1` [Compound 161], the IC50 (in assay [2]; against IDH2 R140Q; in assay [3]; in assay [4]) was less than 50 nM each time.
Turning to `FC1(F)CCC(Nc2nc(NC3CCN(Cc4ccccc4)C3)nc(-c3cccc(C(F)(F)F)n3)n2)C1` (stereo not shown) [Compound 280], the IC50 is no less than 1000 nM in assay [1] and greater than 1000 nM in assay [2].
On to `CC(C)(C)Nc1nc(Nc2cc(F)cc(C#N)c2)nc(-c2nccc(C(F)(F)F)n2)n1` [Compound 245], for which the IC50 was 100 to 1000 nM in assay [1], less than 50 nM against IDH2 R140Q, less than 50 nM in assay [3] and less than 50 nM in assay [4].
On to `CS(=O)(=O)N1CCC(Nc2nc(NC3CCC(F)(F)CC3)nc(-c3cccc(C(F)(F)F)n3)n2)CC1` [Compound 266], for which the values for the IC50 in assay [1], in assay [2] and in assay [4] were 100 to 1000 nM, greater than 1000 nM and less than 50 nM, respectively.
For the molecule `CC(C)(O)CNc1nc(Nc2cc(F)cc(C#N)c2)nc(-c2cccc(C(F)(F)F)n2)n1` [Compound 244], the IC50 in assay [1] was 100 to 1000 nM; on IDH2 R140Q, less than 50 nM; in assay [3] it was less than 50 nM; in assay [4], less than 50 nM.
As to `FC1(F)CC[C@H](Nc2nc(Nc3ccnc(C(F)(F)F)c3)nc(-c3cncc(C(F)(F)F)n3)n2)C1` [Compound 391], the IC50 in assay [2] was 50 to 100 nM; against IDH2 R140Q, less than 50 nM; in assay [3], less than 50 nM; in assay [4] it was less than 50 nM.
On to `FC1(F)CCC(Nc2nc(NC3CCC(F)(F)CC3)nc(-c3cncc(C(F)(F)F)n3)n2)CC1` [Compound 160], for which the IC50 in assay [2] was 50 to 100 nM; on IDH2 R140Q it was less than 50 nM; in assay [3], less than 50 nM; in assay [4] it was less than 50 nM.
In the case of `N#CC1(c2cc(Nc3nc(NC4CC(F)(F)C4)nc(-c4cncc(C(F)(F)F)n4)n3)ccn2)CC1` [Compound 401], the half-inhibitory concentration (IC50) (in assay [2]; against IDH2 R140Q; in assay [3]; in assay [4]) was less than 50 nM each time.
In the case of `Fc1ccc([C@H]2C[C@@H](Nc3nc(N[C@H]4C[C@@H](c5ccc(F)cc5)C4)nc(-c4cccc(C(F)(F)F)n4)n3)C2)cc1` [Compound 272], the IC50 in assay [1] was 100 to 1000 nM; in assay [2] it was greater than 1000 nM; against IDH2 R140Q it was 100 to 1000 nM; in assay [3], 100 to 1000 nM.
Turning to `CC(=O)N1CCC(Nc2nc(NC3CCC(F)(F)CC3)nc(-c3cccc(C(F)(F)F)n3)n2)CC1` [Compound 273], the IC50 in assay [1] is 100 to 1000 nM; in assay [2], greater than 1000 nM.
With `Fc1cc(F)cc(Nc2nc(NC3CC(F)(F)C3)nc(-n3ccc(C(F)(F)F)n3)n2)c1` [Compound 106], the half-maximal inhibitory concentration (IC50) (in assay [2]; against IDH2 R140Q; in assay [3]; in assay [4]) was less than 50 nM throughout.
In the case of `FC1(F)CCC(Nc2nc(NC3CCOCC3)nc(-c3cccc(C(F)(F)F)n3)n2)CC1` [Compound 255], the IC50 in assay [1] and in assay [2] was 100 to 1000 nM in each case.
Take `O=C(c1ccccc1)N1CCC(Nc2nc(NC3CCC(F)(F)C3)nc(-c3cccc(C(F)(F)F)n3)n2)C1` (stereo not shown) [Compound 263]: the half-inhibitory concentration (IC50) in assay [1] and in assay [2] was 100 to 1000 nM each time.
Take `N#CC1(c2cc(Nc3nc(NC4CC(F)(F)C4)nc(-c4cccc(C(F)(F)F)n4)n3)ccn2)CC1` [Compound 168]: the IC50 (in assay [2]; on IDH2 R140Q; in assay [3]; in assay [4]) was less than 50 nM throughout.
For `FC1(F)CCC(Nc2nc(Nc3ccnc(C(F)(F)F)c3)nc(-c3cncc(C(F)(F)F)n3)n2)CC1` [Compound 389], the IC50 in assay [2] was 50 to 100 nM; on IDH2 R140Q, less than 50 nM; in assay [3], less than 50 nM; in assay [4], less than 50 nM.
